Assay results taken from US10441663B2, “Methods for treating cancer” (Bicycle Therapeutics Limited, priority 2016, dated 2019).
*1 amine or outer side, *2 acyl side, *3 side chain or, on linkers, in order; H or OH if unused. Where a SMILES comes first, the peptide text is derived from it. Bridges are numbered along the chain shown (N, C = ends). [ ]: non-standard residue; d: D form. The star is where a group is joined. X1 = COc1cc2cc(c1Cl)N(C)C(=O)C[C@H](OC(=O)[C@H](C)N(C)C(=O)CCSSC(C)CCC(=O)*)[C@]1(C)O[C@H]1[C@H](C)[C@@H]1C[C@@](O)(NC(=O)O1)[C@H](OC)/C=C/C=C(\C)C2; 1Nal = N[C@@H](Cc1cccc2ccccc12)C(=O)O; TBMB = c1c(C[*:1])cc(C[*:3])cc1C[*:2]; Tle = CC(C)(C)[C@H](N)C(=O)O; βAla = NCCC(=O)O; Sar = CNCC(=O)O

Tested on: HCC1806 xenograft
Assay: In vivo efficacy of BT1718 in HCC1806 xenograft
Parameters: species or system Mus Musculus; key to Best response at 10 mg/kg: CR complete response; PR partial response
Procedure: The objective of this study was to evaluate the in vivo anti-tumor efficacy of BT1718in treatment of HT1080, NCI-H292, NCI-H1975, MDA-MB-231, HCC1806, RPMI2650, HCT-15, HT-29 and SNU-16 xenograft in BALB/c nude mice.
The HT1080, NCI-H292, NCI-H1975, MDA-MB-231, HCC1806, RPMI2650, HCT-15, HT-29 and SNU-16 tumor cells were maintained in vitro as a monolayer culture in medium supplemented with 10% heat inactivated fetal bovine serum at 37° C. in an […]. The tumor cells will be routinely subcultured twice weekly by trypsin-EDTA treatment. The cells growing in an exponential growth phase will be harvested and counted for tumor inoculation.
Mouse was inoculated subcutaneously at the right flank with tumor cells for tumor development. The animals were randomized and treatment was started when the average tumor reaches certain volume for the efficacy study, the inoculating cell amounts and starting tumor size were shown as below in Table 9. The test article administration and the animal numbers in each group were shown in the experimental design in Table 10.
All the procedures related to animal handling, care and the treatment in the study were performed according to the guidelines of the Association for Assessment and Accreditation of Laboratory Animal Care (AAALAC). At the time of routine monitoring, the animals were daily checked for any effects of tumor growth and treatments on normal behavior such as mobility, food and water consumption (by looking only), body weight gain/loss (body weights were measured every day), eye/hair matting and any other abnormal effect as stated in the protocol. Death and observed clinical signs were recorded on the basis of the numbers of animals within each subset.
The major endpoint was to see if the tumor growth could be delayed or mice could be cured. Tumor size was measured three times weekly in two dimensions using a caliper, and the volume was expressed in mm^3 using the formula: V=0.5 a×b^2 where a and b are the long and short diameters of the tumor, respectively. The tumor size was then used for calculations of T/C value. The T/C value (in percent) is an indication of antitumor effectiveness; T and C are the mean volumes of the treated and control groups, respectively, on a given day.
TGI was calculated for each group using the formula: TGI (%)=[1−(Ti−T0)/(Vi−V0)]×100; Ti is the average tumor volume of a treatment group on a given day, T0 is the average tumor volume of the treatment group on the day of treatment start, Vi is the average tumor volume of the vehicle control group on the same day with Ti, and V0 is the average tumor volume of the vehicle group on the day of treatment start.
Summary statistics, including mean and the standard error of the mean (SEM), are provided for the tumor volume of each group at each time point.
Statistical analysis of difference in tumor volume among the groups was conducted on the data obtained at the best therapeutic time point after the final dose.
A one-way ANOVA was performed to compare tumor volume among groups, and when a significant F-statistics (a ratio of treatment variance to the error variance) was obtained, comparisons between groups were carried out with Games-Howell test. All data were analyzed using Prism. P<0.05 was considered to be statistically significant.

COc1cc2cc(c1Cl)N(C)C(=O)C[C@H](OC(=O)[C@H](C)N(C)C(=O)CCSSC(C)CCC(=O)NCCC(=O)N(C)CC(=O)N(C)CC(=O)N(C)CC(=O)N(C)CC(=O)N(C)CC(=O)N(C)CC(=O)N(C)CC(=O)N(C)CC(=O)N(C)CC(=O)N(C)CC(=O)N[C@@H](C)C(=O)N[C@H]1CSCc3cc4cc(c3)CSC[C@H](NC(=O)[C@@H](C)NC(=O)[C@H](Cc3cccc5ccccc35)NC(=O)[C@H](CCC(=O)O)NC(=O)[C@H](CC(N)=O)NC(=O)[C@@H](C)NC1=O)C(=O)N[C@@H](CCC(=O)O)C(=O)N[C@@H](CC(=O)O)C(=O)N[C@@H](Cc1ccccc1)C(=O)N[C@@H](Cc1ccc(O)cc1)C(=O)N[C@@H](CC(=O)O)C(=O)N[C@@H](C(C)(C)C)C(=O)N[C@H](C(N)=O)CSC4)[C@]1(C)O[C@H]1[C@H](C)[C@@H]1C[C@@](O)(NC(=O)O1)[C@H](OC)/C=C/C=C(\C)C2 (stereo partly shown) [BT1718] ({X1-βAla}-[Sar][Sar][Sar][Sar][Sar][Sar][Sar][Sar][Sar][Sar]AC[dA]NE[1Nal][dA]CEDFYD[Tle]C-NH2; linker 12-18-25 via TBMB (inferred))
Body Weight (1 mpk biw, day 0): 22.5 ± 0.7 g | Tumor Volume (1 mpk biw, day 0): 188 ± 23 mm^3 | Body Weight (1 mpk biw, day 2): 22.8 ± 0.7 g | Tumor Volume (1 mpk biw, day 2): 265 ± 53 mm^3 | Body Weight (1 mpk biw, day 4): 23.6 ± 0.6 g | Tumor Volume (1 mpk biw, day 4): 428 ± 44 mm^3 | Body Weight (1 mpk biw, day 7): 24.2 ± 0.5 g | Tumor Volume (1 mpk biw, day 7): 660 ± 85 mm^3 | Body Weight (1 mpk biw, day 9): 24.0 ± 0.5 g | Tumor Volume (1 mpk biw, day 9): 793 ± 122 mm^3 | Body Weight (1 mpk biw, day 11): 24.3 ± 0.6 g | Tumor Volume (1 mpk biw, day 11): 882 ± 118 mm^3 | Body Weight (1 mpk biw, day 14): 24.8 ± 0.4 g | Tumor Volume (1 mpk biw, day 14): 1169 ± 137 mm^3 | re-growth during dosing suspension (2 months dosing suspension period): no re-growth | Body Weight (3 mpk biw, day 0): 22.6 ± 1.0 g | Tumor Volume (3 mpk biw, day 0): 190 ± 17 mm^3 | Body Weight (3 mpk biw, day 2): 23.2 ± 0.9 g | Tumor Volume (3 mpk biw, day 2): 259 ± 34 mm^3 | Body Weight (3 mpk biw, day 4): 22.6 ± 1.0 g | Tumor Volume (3 mpk biw, day 4): 296 ± 41 mm^3 | Body Weight (3 mpk biw, day 7): 22.8 ± 1.4 g | Tumor Volume (3 mpk biw, day 7): 276 ± 77 mm^3 | Body Weight (3 mpk biw, day 9): 22.6 ± 1.6 g | Tumor Volume (3 mpk biw, day 9): 323 ± 116 mm^3 | Body Weight (3 mpk biw, day 11): 23.2 ± 1.2 g | Tumor Volume (3 mpk biw, day 11): 392 ± 126 mm^3 | Body Weight (3 mpk biw, day 14): 23.5 ± 1.1 g | Tumor Volume (3 mpk biw, day 14): 527 ± 158 mm^3 | Body Weight (10 mpk biw, day 0): 23.1 ± 0.6 g | Tumor Volume (10 mpk biw, day 0): 186 ± 30 mm^3 | Body Weight (10 mpk biw, day 2): 22.2 ± 1.1 g | Tumor Volume (10 mpk biw, day 2): 221 ± 35 mm^3 | Body Weight (10 mpk biw, day 4): 23.2 ± 0.9 g | Tumor Volume (10 mpk biw, day 4): 185 ± 20 mm^3 | Body Weight (10 mpk biw, day 7): 23.4 ± 0.8 g | Tumor Volume (10 mpk biw, day 7): 142 ± 9 mm^3 | Body Weight (10 mpk biw, day 9): 22.9 ± 1.0 g | Tumor Volume (10 mpk biw, day 9): 92 ± 2 mm^3 | Body Weight (10 mpk biw, day 11): 22.5 ± 1.2 g | Tumor Volume (10 mpk biw, day 11): 84 ± 6 mm^3 | Body Weight (10 mpk biw, day 14): 23.8 ± 0.7 g | Tumor Volume (10 mpk biw, day 14): 67 ± 11 mm^3 | TGI (HCC1806, 1 mpk, biw, day 14): 8.6% | Tumor Volume (HCC1806, 1 mpk, biw, day 14): 1169 ± 137 mm^3 | TGI (HCC1806, 3 mpk, biw, day 14): 68.6% | Tumor Volume (HCC1806, 3 mpk, biw, day 14): 527 ± 158 mm^3 | TGI (HCC1806, 10 mpk, biw, day 14): 111.1% | Tumor Volume (HCC1806, 10 mpk, biw, day 14): 67 ± 11 mm^3 | Best response at 10 mg/kg (HCC-1806, 10 mg/kg): CR | Minimally Effective Dose IV BIW (HCC-1806, dose leading to tumor-stasis): <10 mg/kg | tumor volume after regression (after 2-3 weeks 10 mg/kg biw): below 50 mm3
